Experimental data reported in patent publication US20090156577A1, “7-AMINO ALKYLIDENYL-HETEROCYCLIC QUINOLONES AND NAPHTHYRIDONES” (priority 2004, published 2009).
In brackets after ≈: the same amount, converted by molar mass. Where a name gives a salt, the structure may show the parent alone. Read-outs that look alike come from different tables or passages of the source.

Tested on: pathogenic bacteria
Experiment: MIC by microdilution broth method (NCCLS M7-A4), in vitro antibacterial activity
Format: cell-based
In short: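 MIC read after 35 °C incubation for 16–20 h relative to drug-free growth wells. Cation-adjusted Mueller-Hinton broth with two-fold compound dilutions, organisms at roughly 5×10^4 CFU/well final. Method follows NCCLS document M7-A4.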

[1] = Staphylococcus aureus, Organism A: Staphylococcus aureus OC4172, read-out: MIC
[2] = Streptococcus pneumoniae, ATCC49619, Organism E: Streptococcus pneumoniae ATCC 49619, read-out: MIC
[3] = Streptococcus pneumoniae, Organism B: fluoroquinolone-resistant clinical isolate of Streptococcus pneumoniae (QRDR amino acid substitutions)
[4] = Streptococcus pneumoniae, Organism C: fluoroquinolone-resistant clinical isolate of Streptococcus pneumoniae (QRDR amino acid substitutions)
[5] = Streptococcus pneumoniae, Organism D: fluoroquinolone-resistant clinical isolate of Streptococcus pneumoniae (QRDR amino acid substitutions)

SMILES | MIC [1] [µg/mL] | MIC [2] [µg/mL] | MIC [3] [µg/mL] | MIC [4] [µg/mL] | MIC [5] [µg/mL] | MIC (Staphylococcus aureus, Organism A: Staphylococcus aureus OC4172) [µg/mL] | MIC (Streptococcus pneumoniae, ATCC49619, Organism E: Streptococcus pneumoniae ATCC 49619) [µg/mL]
NC/C(Cl)=C1\CCCN(c2cc3c(cc2F)c(=O)c(C(=O)O)cn3C2CC2)C1 [Compound 258, (Z)-7-[3-(2-Amino-1-chloro-ethylidene)-piperidin-1-yl]-1-cyclopropyl-6-fluoro-4-oxo-1,4-dihydro-quinoline-3-carboxylic acid] | ≤ 4 | 8 (≈ 19.7 µM) | 8 (≈ 19.7 µM) | > 16 | > 16 | – | –
NC/C(F)=C1/CCCN(c2c(F)cc3c(=O)c(C(=O)O)cn(C4CC4)c3c2OC(F)F)C1 [Compound 259, (E)-7-[3-(2-Amino-1-fluoro-ethylidene)-piperidin-1-yl]-1-cyclopropyl-8-difluoromethoxy-6-fluoro-4-oxo-1,4-dihydro-quinoline-3-carboxylic acid] | 0.03 (≈ 0.0659 µM) | 0.06 (≈ 0.132 µM) | 0.5 (≈ 1.1 µM) | 1 (≈ 2.2 µM) | 0.12 (≈ 0.263 µM) | – | –
NC/C(Cl)=C1/CCCN(c2c(F)cc3c(=O)c(C(=O)O)cn(C4CC4)c3c2OC(F)F)C1 [Compound 260, (E)-7-[3-(2-Amino-1-chloro-ethylidene)-piperidin-1-yl]-1-cyclopropyl-8-difluoromethoxy-6-fluoro-4-oxo-1,4-dihydro-quinoline-3-carboxylic acid] | 0.03 (≈ 0.0636 µM) | 0.06 (≈ 0.127 µM) | – | 0.5 (≈ 1.06 µM) | 0.06 (≈ 0.127 µM) | – | –
COc1c(N2CCC/C(=C(\Cl)CN)C2)c(F)cc2c(=O)c(C(=O)O)cn(C3CC3)c12 [Compound 261, (E)-7-[3-(2-Amino-1-chloro-ethylidene)-piperidin-1-yl]-1-cyclopropyl-6-fluoro-8-methoxy-4-oxo-1,4-dihydro-quinoline-3-carboxylic Acid Trifluoroacetic Acid Salt] | – | – | 0.06 | 0.06 | 0.06 | ≤ 0.015 | ≤ 0.015
COc1c(N2CCC(=C(Cl)CN)CC2)c(F)cc2c(=O)c(C(=O)O)cn([C@@H]3C[C@@H]3F)c12 [Compound 262, 7-[4-(2-Amino-1-chloro-ethylidene)-piperidin-1-yl]-6-fluoro-(1R,2S)-1-(2-fluoro-cyclopropyl)-8-methoxy-4-oxo-1,4-dihydro-quinoline-3-carboxylic acid] | ≤ 0.015 | 0.25 (≈ 0.551 µM) | – | 1 (≈ 2.2 µM) | 1 (≈ 2.2 µM) | – | –
Cc1c(F)c(N2CCC(=C(Cl)CN)CC2)cc2c1c(=O)c(C(=O)O)cn2C1CC1 [Compound 263, 7-[4-(2-Amino-1-chloro-ethylidene)-piperidin-1-yl]-1-cyclopropyl-6-fluoro-5-methyl-4-oxo-1,4-dihydro-quinoline-3-carboxylic Acid] | 0.03 (≈ 0.0714 µM) | 0.12 (≈ 0.286 µM) | 0.5 (≈ 1.19 µM) | 1 (≈ 2.38 µM) | 0.5 (≈ 1.19 µM) | – | –
CNCC(Cl)=C1CCN(c2c(F)cc3c(=O)c(C(=O)O)cn(C4CC4)c3c2O)CC1.Cl [Compound 267, 7-[4-(1-Chloro-2-methylamino-ethylidene)-piperidin-1-yl]-1-cyclopropyl-6-fluoro-8-hydroxy-4-oxo-1,4-dihydro-quinoline-3-carboxylic Acid Hydrochloride Salt] | 0.12 | 0.5 | 2 | 2 | 2 | – | –
NCC(Cl)=C1CN(c2c(F)cc3c(=O)c(C(=O)O)cn(-c4nc(N)c(F)cc4F)c3c2Cl)C1 [Compound 268, 7-[3-(2-Amino-1-chloro-ethylidene)-azetidin-1-yl]-1-(6-amino-3,5-difluoro-pyridin-2-yl)-8-chloro-6-fluoro-4-oxo-1,4-dihydro-quinoline-3-carboxylic Acid] | ≤ 0.015 | 0.03 (≈ 0.06 µM) | 0.06 (≈ 0.12 µM) | 0.12 (≈ 0.24 µM) | 0.12 (≈ 0.24 µM) | – | –
NCC(F)=C1CN(c2c(F)cc3c(=O)c(C(=O)O)cn(-c4nc(N)c(F)cc4F)c3c2Cl)C1 [Compound 269, 1-(6-Amino-3,5-difluoro-pyridin-2-yl)-7-[3-(2-amino-1-fluoro-ethylidene)-azetidin-1-yl]-8-chloro-6-fluoro-4-oxo-1,4-dihydro-quinoline-3-carboxylic acid] | ≤ 0.015 | 0.03 (≈ 0.062 µM) | 0.25 (≈ 0.517 µM) | 0.06 (≈ 0.124 µM) | – | – | –
NCC(Cl)=C1CCN(c2c(F)cc3c(=O)c(C(=O)O)cn(-c4nc(N)c(F)cc4F)c3c2Cl)CC1 [Compound 270, 7-[4-(2-Amino-1-chloro-ethylidene)-piperidin-1-yl}-1-(6-amino-3,5-difluoropyridin-2-yl)-8-chloro-6-fluoro-4-oxo-1,4-dihydro-quinoline-3-carboxylic Acid] | 0.06 (≈ 0.114 µM) | 0.5 (≈ 0.946 µM) | – | 4 (≈ 7.57 µM) | 2 (≈ 3.79 µM) | – | –
NCC(Cl)=C1CCN(c2nc3c(cc2F)c(=O)c(C(=O)O)cn3-c2ccc(F)cc2F)CC1 [Compound 271, 7-[4-(2-Amino-1-chloro-ethylidene)-piperidin-1-yl]-1-(2,4-difluoro-phenyl)-6-fluoro-4-oxo-1,4-dihydro-[1,8]naphthyridine-3-carboxylic acid] | ≤ 0.015 | 0.12 (≈ 0.251 µM) | 1 (≈ 2.09 µM) | 1 (≈ 2.09 µM) | 1 (≈ 2.09 µM) | – | –
NCC(F)=C1CN(c2cc3c(cc2F)c(=O)c(C(=O)O)cn3C2CC2)C1 [Compound 272, 7-[3-(2-amino-1-fluoro-ethylidene)-azetidin-1-yl]-1-cyclopropyl-6-fluoro-4-oxo-1,4-dihydro-quinoline-3-carboxylic acid] | ≤ 0.015 | 0.5 (≈ 1.38 µM) | 4 (≈ 11.1 µM) | 0.5 (≈ 1.38 µM) | – | – | –
COc1c(N2CC(=C(F)CN)C2)c(F)cc2c(=O)c(C(=O)O)cn(C3CC3)c12 [Compound 273, 7-[3-(2-amino-1-fluoro-ethylidene)-azetidin-1-yl]-1-cyclopropyl-6-fluoro-8-methoxy-4-oxo-1,4-dihydro-quinoline-3-carboxylic acid] | 0.03 (≈ 0.0767 µM) | 4 (≈ 10.2 µM) | 4 (≈ 10.2 µM) | 0.5 (≈ 1.28 µM) | – | – | –
COc1c(N2CC(=C(F)CN)C2)ccc2c(=O)c(C(=O)O)cn(C3CC3)c12 [Compound 274, 7-[3-(2-amino-1-fluoro-ethylidene)-azetidin-1-yl]-1-cyclopropyl-8-methoxy-4-oxo-1,4-dihydro-quinoline-3-carboxylic acid] | 0.06 (≈ 0.161 µM) | 1 (≈ 2.68 µM) | 4 (≈ 10.7 µM) | 1 (≈ 2.68 µM) | – | – | –
COc1c(N2CCC(=C(Cl)CN)CC2)ccc2c(=O)c(C(=O)O)cn(C3CC3)c12 [Compound 275, 7-[4-(2-Amino-1-chloro-ethylidene)-piperidin-1-yl]-1-cyclopropyl-8-methoxy-4-oxo-1,4-dihydro-quinoline-3-carboxylic acid] | 0.03 (≈ 0.0718 µM) | 0.12 (≈ 0.287 µM) | 1 (≈ 2.39 µM) | 1 (≈ 2.39 µM) | 1 (≈ 2.39 µM) | – | –
C[C@H]1COc2c(N3CC(=C(F)CN)C3)c(F)cc3c(=O)c(C(=O)O)cn1c23 [Compound 276, 9-[3-(2-Amino-1-fluoro-ethylidene)-azetidin-1-yl]-8-fluoro-(3S)-3-methyl-6-oxo-2,3-dihydro-6H-1-oxa-3a-aza-phenalene-5-carboxylic acid] | ≤ 0.015 | 0.25 (≈ 0.663 µM) | 0.5 (≈ 1.33 µM) | 2 (≈ 5.3 µM) | 4 (≈ 10.6 µM) | – | –
C[C@H]1COc2c(N3CCC(=C(Cl)CN)CC3)c(F)cc3c(=O)c(C(=O)O)cn1c23 [Compound 277, 9-[4-(2-Amino-1-chloro-ethylidene)-piperidin-1-yl]-8-fluoro-(3S)-3-methyl-6-oxo-2,3-dihydro-6H-1-oxa-3a-aza-phenalene-5-carboxylic acid] | ≤ 0.015 | 0.03 (≈ 0.0711 µM) | 0.25 (≈ 0.593 µM) | 0.25 (≈ 0.593 µM) | 0.5 (≈ 1.19 µM) | – | –
N#CC(CN)=C1CCN(c2nc3c(cc2F)c(=O)c(C(=O)O)cn3C2CC2)CC1 [Compound 283, 7-[4-(2-Amino-1-cyano-ethylidene)-piperidin-1-yl]-1-cyclopropyl-6-fluoro-4-oxo-1,4-dihydro-[1,8]naphthyridine-3-carboxylic Acid] | 0.25 (≈ 0.629 µM) | 0.5 (≈ 1.26 µM) | 2 (≈ 5.03 µM) | 4 (≈ 10.1 µM) | 8 (≈ 20.1 µM) | – | –
N#CC(CN)=C1CCN(c2cc3c(cc2F)c(=O)c(C(=O)O)cn3C2CC2)CC1 [Compound 285, 7-[4-(2-Amino-1-cyano-ethylidene)-piperidin-1-yl]-1-cyclopropyl-6-fluoro-4-oxo-1,4-dihydro-quinoline-3-carboxylic Acid] | 0.25 (≈ 0.631 µM) | 1 (≈ 2.52 µM) | – | 8 (≈ 20.2 µM) | > 16 | – | –
NCC(C(=O)O)=C1CCN(c2nc3c(cc2F)c(=O)c(C(=O)O)cn3C2CC2)CC1 [Compound 286, 7-[4-(2-Amino-1-carboxy-ethylidene)-piperidin-1-yl]-1-cyclopropyl-6-fluoro-4-oxo-1,4-dihydro-[1,8]naphthyridine-3-carboxylic Acid] | 4 (≈ 9.61 µM) | 16 (≈ 38.4 µM) | – | > 16 | > 16 | – | –
NCCNCC(Cl)=C1CCN(c2nc3c(cc2F)c(=O)c(C(=O)O)cn3C2CC2)CC1.O=C(O)C(F)(F)F [Compound 289, 7-{4-[2-(2-Amino-ethylamino)-1-chloro-ethylidene]-piperidin-1-yl}-1-cyclopropyl-6-fluoro-4-oxo-1,4-dihydro-[1,8]naphthyridine-3-carboxylic Acid Trifluoroacetic Acid Salt] | 0.5 | 0.25 | – | 1 | 2 | – | –
O=CN1CCN(CC(Cl)=C2CCN(c3nc4c(cc3F)c(=O)c(C(=O)O)cn4C3CC3)CC2)CC1 [Compound 291, 7-{4-[1-Chloro-2-(4-formyl)-piperazin-1-yl-ethylidene]-piperidin-1-yl}-1-cyclopropyl-6-fluoro-4-oxo-1,4-dihydro-[1,8]naphthyridine-3-carboxylic Acid Trifluoroacetic Acid Salt] | 2 | 8 | – | > 16 | 8 | – | –
